What is called IC50 is the concentration that gives 50% inhibition. High values mean a need for much substance, low ones inhibition by little substance. A word on the melting point: it is the temperature, or range, at which the solid turns liquid.

SMILES strings stand for the structures. “Also recorded” adds a separate entry of the source.

The test system of data set [1] is rat small intestine α-glucosidase. Kind of data set: Rat α-glucosidase assay (4-nitrophenol release from pNPG). Type of data set: biochemical. As to conditions: for α-glucosidase inhibitory activity (in words): SAR discussion; for IC50: rat small intestine α-glucosidase, means of three replicates ± standard deviation. On the procedure:
Based on the reported method of Lossow et al., rat small intestine α-glucosidase (EC 3.2.1.20) was prepared. The in-vitro activity was determined by the measurement of 4-nitrophenol which was released from para-nitrophenyl α-D glucopyranoside. The preparation of 200 µL was performed as follows: the enzyme solution (190 µL, 0.15 units/ml), different concentrations of target compounds (1, 10, 20, 50, 100, 500 and 1000 µM (5 µL), potassium phosphate buffer. Final compounds were dissolved in DMSO (not exceed than 5% of final volume) and pre-incubated at 37 °C, p-nitrophenyl glucopyranoside and then substrate (5 µL, 3 mM), was added to the enzyme solution and incubated for further one hour at 37 °C. Finally, by using Cytation 3 hybrid microplate reader (BioTek, USA) any change in the absorbance was measured at 405 nm. By using GraphPadprism 6.0 (SanDiego, California, USA) (https://www.graphpad.com/scientificsoftware/prism/) was used to obtain IC50 values of tested compounds.

The subject of another data set is α-glucosidase. Kind of data set: Kinetic analysis (Lineweaver-Burk and secondary plot). Type of data set: biochemical, rat. On the procedure: Modes of enzyme inhibition were determined by recording the effect of various concentrations of the substrates 1, 2.5, 5 or 10 mM pNPG for α-glucosidase on Lineweaver–Burk plots using calculated Vmax and Km. For inhibition test of α-glucosidase: the concentrations applied for compounds 10k was 0.1, 1, 5 and 10 nM. Inhibition constants (Ki) were determined by depicting the secondary plot of Km against various concentrations of inhibitors.
The activity of […] (PNPG) was investigated in the presence and absence of compound 10k.

The subject of a further data set is HDF. The data set can be described thus: Cytotoxicity against normal cell line. It is filed as cell-based.

Take `CCOC(=O)c1c(SCc2cn(CC(=O)Nc3ccc([N+](=O)[O-])cc3)nn2)nnc(-c2ccccc2)c1-c1ccccc1` [Compound 10q, Ethyl 3-(((1-(2-((4-nitrophenyl)amino)-2-oxoethyl)-1H-1,2,3-triazol-4-yl)methyl)thio)-5,6-diphenylpyridazine-4-carboxylate]: the melting point lay within 221 to 223 °C. Further, in data set [1], the “α-glucosidase inhibitory activity (in words)” value is reported as “active” and it took 47.1 ± 5.6 µM to reach half-maximal inhibition (IC50).

Compound `CCOC(=O)c1c(SCc2cn(CC(=O)Nc3ccc(C(C)C)cc3)nn2)nnc(-c2ccccc2)c1-c1ccccc1` [Compound 10d, Ethyl 3-(((1-(2-((4-isopropylphenyl)amino)-2-oxoethyl)-1H-1,2,3-triazol-4-yl)methyl)thio)-5,6-diphenylpyridazine-4-carboxylate] returned a melting point of 183 to 185 °C. Also, half-maximal inhibition in data set [1] (IC50) was put at 86.5 ± 7.3 µM.

Consider `CCOC(=O)c1c(SCc2cn(CC(=O)Nc3cccc([N+](=O)[O-])c3)nn2)nnc(-c2ccccc2)c1-c1ccccc1` [Compound 10p, Ethyl 3-(((1-(2-((3-nitrophenyl)amino)-2-oxoethyl)-1H-1,2,3-triazol-4-yl)methyl)thio)-5,6-diphenylpyridazine-4-carboxylate], for which the melting point lay within 201 to 203 °C. The IC50 in data set [1] turned out to be 84 ± 13.2 µM.

`CCOC(=O)c1c(SCc2cn(CC(=O)Nc3ccc(Cl)c(Cl)c3)nn2)nnc(-c2ccccc2)c1-c1ccccc1` [10 m, Ethyl 3-(((1-(2-((3,4-dichlorophenyl)amino)-2-oxoethyl)-1H-1,2,3-triazol-4-yl)methyl)thio)-5,6-diphenylpyridazine-4-carboxylate]: the melting point lay within 166 to 168 °C. In data set [1], the “α-glucosidase inhibitory activity (in words)” value is “active” and the IC50 came to 27.7 ± 3 µM.

`CCOC(=O)c1c(SCc2cn(CC(=O)Nc3cccc(C)c3)nn2)nnc(-c2ccccc2)c1-c1ccccc1` [Compound 10b, Ethyl 3-(((1-(2-oxo-2-(m-tolylamino)ethyl)-H-1,2,3-triazol-4-yl)methyl)thio)-5,6-diphenylpyridazine-4-carboxylate] came in with an IC50 in data set [1] of 58.9 ± 7.5 µM.

`CCOC(=O)c1c(SCc2cn(CC(=O)Nc3ccccc3)nn2)nnc(-c2ccccc2)c1-c1ccccc1` [Compound 10a, Ethyl 3-(((1-(2-oxo-2-(phenylamino)ethyl)-1H-1,2,3-triazol-4-yl)methyl)thio)-5,6-diphenylpyridazine-4-carboxylate] came in with a melting point of 147 to 149 °C. It took 35.6 ± 8.9 µM to reach half-maximal inhibition in data set [1] (IC50).

Compound `CCOC(=O)c1c(SCc2cn(CC(=O)Nc3cccc(Cl)c3)nn2)nnc(-c2ccccc2)c1-c1ccccc1` [Compound 10i, Ethyl 3-(((1-(2-((3-chlorophenyl)amino)-2-oxoethyl)-1H-1,2,3-triazol-4-yl)methyl)thio)-5,6-diphenylpyridazine-4-carboxylate] registered a melting point of 200 to 202 °C. In addition, in data set [1], the “α-glucosidase inhibitory activity (in words)” value is on record as “no inhibitory activity” and the IC50 was more than 250 µM.

`CCOC(=O)c1c(SCc2cn(CC(=O)Nc3ccc(C)cc3)nn2)nnc(-c2ccccc2)c1-c1ccccc1` [Compound 10c, Ethyl 3-(((1-(2-oxo-2-(p-tolylamino)ethyl)-1H-1,2,3-triazol-4-yl)methyl)thio)-5,6-diphenylpyridazine-4-carboxylate] had a melting point of 207 to 209 °C. The same compound returned an IC50 in data set [1] of more than 250 µM.

As to `CCOC(=O)c1c(SCc2cn(CC(=O)Nc3ccccc3Cl)nn2)nnc(-c2ccccc2)c1-c1ccccc1` [10 h, Ethyl 3-(((1-(2-((2-chlorophenyl)amino)-2-oxoethyl)-1H-1,2,3-triazol-4-yl)methyl)thio)-5,6-diphenylpyridazine-4-carboxylate], the melting point is 161 to 163 °C. The compound also yielded an IC50 in data set [1] of 14.9 ± 1.9 µM.

As for `CCOC(=O)c1c(SCc2cn(CC(=O)Nc3ccc(Br)cc3)nn2)nnc(-c2ccccc2)c1-c1ccccc1` [Compound 10k, Ethyl 3-(((1-(2-((4-bromophenyl)amino)-2-oxoethyl)-1H-1,2,3-triazol-4-yl)methyl)thio)-5,6-diphenylpyridazine-4-carboxylate], the melting point lay within 224 to 226 °C. Further, the IC50 in data set [1] was 1.7 ± 0.12 µM. For the same compound, the “folds more active than standard drug (acarbose)” value in data set [1] (ratio of IC50 values against acarbose) is 100 folds. The mode of inhibition entry with α-glucosidase is “uncompetitive”. For the same compound, the cytotoxicity result in the data set on HDF is listed as “not toxic; also recorded: No toxicity”.

Consider `CCOC(=O)c1c(SCc2cn(CC(=O)Nc3ccc(F)cc3)nn2)nnc(-c2ccccc2)c1-c1ccccc1` [10 g, Ethyl 3-(((1-(2-((4-fluorophenyl)amino)-2-oxoethyl)-1H-1,2,3-triazol-4-yl)methyl)thio)-5,6-diphenylpyridazine-4-carboxylate], for which the melting point was in the range of 211 to 213 °C. Also, inhibition in data set [1] was half-maximal at 37.5 ± 7.2 µM (IC50).

Turning to `CCOC(=O)c1c(SCc2cn(CC(=O)Nc3ccc(Cl)cc3)nn2)nnc(-c2ccccc2)c1-c1ccccc1` [Compound 10j, Ethyl 3-(((1-(2-((4-chlorophenyl)amino)-2-oxoethyl)-1H-1,2,3-triazol-4-yl)methyl)thio)-5,6-diphenylpyridazine-4-carboxylate], the melting point was 195 to 197 °C. Moreover, half-maximal inhibition in data set [1] (IC50) was put at 21 ± 5.3 µM.

For the compound `CCOC(=O)c1c(SCc2cn(CC(=O)Nc3cccc(C#N)c3)nn2)nnc(-c2ccccc2)c1-c1ccccc1` [Compound 10n, Ethyl 3-(((1-(2-((3-cyanophenyl)amino)-2-oxoethyl)-1H-1,2,3-triazol-4-yl)methyl)thio)-5,6-diphenylpyridazine-4-carboxylate], the melting point lay in the range of 196 to 198 °C. Further, the IC50 in data set [1] was more than 250 µM.

Take `CCOC(=O)c1c(SCc2cn(CC(=O)Nc3cc(Cl)cc(Cl)c3)nn2)nnc(-c2ccccc2)c1-c1ccccc1` [10 L, Ethyl 3-(((1-(2-((3,5-dichlorophenyl)amino)-2-oxoethyl)-1H-1,2,3-triazol-4-yl)methyl)thio)-5,6-diphenylpyridazine-4-carboxylate]: the melting point is 185 to 187 °C. Moreover, in data set [1], the “α-glucosidase inhibitory activity (in words)” value was “active” and the IC50 was determined as 14.1 ± 3.3 µM.

The compound `CCOC(=O)c1c(SCc2cn(CC(=O)Nc3cccc(OC)c3)nn2)nnc(-c2ccccc2)c1-c1ccccc1` [Compound 10e, Ethyl 3-(((1-(2-((3-methoxyphenyl)amino)-2-oxoethyl)-1H-1,2,3-triazol-4-yl)methyl)thio)-5,6-diphenylpyridazine-4-carboxylate] had a melting point of 155 to 157 °C. The compound also gave an IC50 in data set [1] of 35.7 ± 3.9 µM.

On to `C[C@H]1O[C@H](O[C@H]2[C@H](O)[C@@H](O)[C@@H](O[C@H]3[C@H](O)[C@@H](O)C(O)O[C@@H]3CO)O[C@@H]2CO)[C@H](O)[C@@H](O)[C@@H]1N[C@H]1C=C(CO)[C@@H](O)[C@H](O)[C@H]1O` (stereo partly drawn) [Acarbose, reference compound], for which, in data set [1], the IC50 was 170 ± 23.1 µM.

`CCOC(=O)c1c(SCc2cn(CC(=O)Nc3ccc(OC)cc3)nn2)nnc(-c2ccccc2)c1-c1ccccc1` [Compound 10f, Ethyl 3-(((1-(2-((4-methoxyphenyl)amino)-2-oxoethyl)-1H-1,2,3-triazol-4-yl)methyl)thio)-5,6-diphenylpyridazine-4-carboxylate] came in with a melting point of 230 to 232 °C. Further, in data set [1], inhibition was half-maximal at 25.2 ± 2.5 µM (IC50).

Take `CCOC(=O)c1c(SCc2cn(CC(=O)Nc3ccc([N+](=O)[O-])c(C)c3)nn2)nnc(-c2ccccc2)c1-c1ccccc1` [Compound 10r, Ethyl 3-(((1-(2-((3-methyl-4-nitrophenyl)amino)-2-oxoethyl)-1H-1,2,3-triazol-4-yl)methyl)thio)-5,6-diphenylpyridazine-4-carboxylate]: the melting point fell in the range of 212 to 214 °C. In data set [1], the “α-glucosidase inhibitory activity (in words)” value is reported as “no activity” and the IC50 is more than 250 µM.

(Values after publication PMC10294378, “Synthesis, α-Glucosidase inhibitory activity and docking studies of Novel Ethyl 1,2,3-triazol-4-ylmethylthio-5,6-diphenylpyridazine-4-carboxylate derivatives” (BMC Chemistry, 2023).)
